Counter-ions that a name gives are not always drawn. Like-named read-outs stand apart in the source and are kept apart here.
Legend:
human 5-HT2A receptor = human 5-HT2A receptor (Homo sapiens, UniProt P28223); experiment: Human 5-HT2A radioligand binding assay ([3H]-ketanserin)
Method: The objective of this study was to evaluate the binding properties of exemplary compounds of Formula I on 5-hydroxytryptamine receptor 2A (5-HT2A).
• 1. The assay buffer was prepared following the table below.
UniFilter-96 GF/B plate was pretreated: • i. 50 μl/well of 0.5% (v/v) PEI was added to UniFilter-96 GF/C plates. The plates were sealed and incubated at 4° C. for 3 hrs. • ii. After incubation, the plates were washed 3 times with ice-cold wash buffer (50 mM Tris, pH7.4). • 4. […] Cell membrane was diluted with assay buffer and 330 μl/well was added to 96 round deep well plates to reach a concentration of 20 μg/well. • ii. 8 concentrations of reference or test compounds were prepared and 110 μl/well was added to 96 round deep well plates. • iii. […] The plate was centrifuged at 1000 rpm for 30 secs and then agitated at 600 rpm, R.T. for 5 min. • 6. […] The filter plates were sealed and 40 μl/well of scintillation cocktail was added. • 10. The plate was read by using a Microbeta^2 microplate counter.
• 1. […] The IC50 was determined by fitting percentage of inhibition as a function of compound concentrations with Hill equation using XLfit.

[1] = biological target: T1, human 5-hydroxytryptamine receptor 1A (5-HT1A) (Homo sapiens, UniProt P08908); experiment: Human 5-HT1A functional FLIPR assay (agonist mode); format: cell-based; conditions: footnote: Curve fitting with activation (%) @ 10 mM with RFU
T1 construct: expressed in transfected cells; host or cells: HTR1A&Ga15-CHO
T1 sequence (P08908 1-422): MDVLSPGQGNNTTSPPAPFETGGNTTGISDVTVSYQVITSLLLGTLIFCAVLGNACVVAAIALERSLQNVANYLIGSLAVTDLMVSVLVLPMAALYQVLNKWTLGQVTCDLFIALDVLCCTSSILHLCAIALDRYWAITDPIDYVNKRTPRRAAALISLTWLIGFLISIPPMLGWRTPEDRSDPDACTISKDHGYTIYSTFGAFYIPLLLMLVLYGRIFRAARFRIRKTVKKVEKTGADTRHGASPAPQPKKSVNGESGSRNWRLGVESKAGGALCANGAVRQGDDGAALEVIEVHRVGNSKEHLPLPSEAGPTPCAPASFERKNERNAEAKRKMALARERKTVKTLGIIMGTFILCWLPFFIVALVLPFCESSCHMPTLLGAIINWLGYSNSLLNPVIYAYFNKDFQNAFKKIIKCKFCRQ
Method: The potential excitatory effects of compounds targeting on 5-hydroxytryptamine receptor 1A under agonist mode was assessed.
HTR1A&Ga15-CHO cells were cultured in DMEM/F12 medium containing 10% dialyzed FBS, 1× penicillin-streptomycin and 600 μg/mL Hygromycin B. The cells were passaged about three times a week, maintained between […] confluence.
• 1. The cell culture medium (DMEM/F12 medium containing 10% dialyzed FBS, 1× penicillin-streptomycin and 600 μg/mL Hygromycin B), TrypLE™ Express and DPBS was warmed to R.T. in advance. • 2. The cell culture medium was removed from the flask. The cells were washed with DPBS. • 3. 1 mL TrypLE™ Express was added to the flask, mixed well by gentle shaking and then cells were incubated at 37° C. for a few minutes. • 4. The cells morphological change was checked under microscope, and the digestion stopped by adding 2 mL cell culture medium to the flask when most of cells turned to round. • 5. The cell suspension was transferred into a 15 mL centrifuge tube, and then centrifuged at 1,200 rpm for 5 minutes. • 6. The supernatant was removed. The cell pellet was resuspended with 2 mL cell culture medium. • 7. The cell density was counted using cell counter. Only cells with >85% viability were used for the assay. • 8. The cells were diluted to 4×10^5/mL with cell culture medium. • 9. 30 μL/well cell suspensions were added into a 384-well cell plate (The cell density was 12,000 cells/well). • 10. The cell plate was incubated overnight at 37° C., 5% (v/v) CO2. 3.3 Cell handling • 1. On the day of experiments, culture medium was removed from the cell plate. • 2. 10 μL of assay buffer (20 mM HEPES, in 1× HBSS, pH 7.4) was added to each well of the cell plate. • 3. 2× dye solution was prepared following the manufacture's instruction of the FLIPR® Calcium 6 assay kit: • i. The dye was diluted with assay buffer. • ii. Probenecid was added to the final concentration of 5 mM. • iii. Vigorously vortex for 1-2 minutes, and pH was adjusted to 7.4. • 4. 10 μL of 2× dye solution was added to each well of the cell plate. • 5. The cell plate was placed on plate shaker, followed by shaking at 600 rpm for 2 minutes. • 6. The plate at 37° C. was incubated for 2 hours followed by an additional 15-minute incubation at 25° C.
• 1. Serotonin was prepared to the concentration of 10 mM with DMSO, 3-folds serial dilutions were performed with DMSO. • 2. The test compounds were prepared to the concentration of 10 mM with DMSO, 3-folds serial dilutions were performed with DMSO. • 3. The compounds were added to a 384-well compound source plate. • 4. 90 nL/well of serial diluted compounds were transferred from source plate to a 384-well compound plate by using an Echo. • 5. 30 μL/well of assay buffer was added to the compound plate. • 6. The plate-on-plate shaker was mixed for 2 minutes.
• 1. After the cells had incubated with dye solution, the cell plate, compound plate containing 3×compounds and FLIPR tips were placed into FLIPR. • 2. 10 μL of 3×compounds were transferred from the compound plate to the cell plate by FLIPR. • 3. The plate was read for 160 sec with 1 sec interval to obtain the data of agonist mode.
• 1. The normalized fluorescence reading (RFU) was calculated as shown below, wherein Fmax and Fmin stand for maximum and minimum of calcium signal during defined time window:
2. EC50 was calculated by fitting RFU against log of compound concentrations with Hill equation using XLfit.

in vitro [2] = conditions: human, microsomes
Method: (§1) The concentrations of parent compounds in reaction systems were evaluated by LC-MS/MS for estimating the stability in pooled human, male rat and male mouse liver microsomes. The in vitro intrinsic clearances of test compounds were determined as well. Protocol
(§2) A master solution in the “Incubation Plate” containing phosphate buffer, ultra-pure H2O, MgCl2 solution and liver microsomes was made according to Table 6. The mixture was pre-warmed at 37° C. water bath for 5 minutes.
(§3) The reaction was started with the addition of 4 μL of 200 μM exemplary test compounds of the application or control compounds to each master solution to get the final concentration of 2 μM. This study was performed in duplicate.
(§4) Aliquots of 50 μL were taken from the reaction solution at 0, 15, 30, 45 and 60 minutes. The reaction solutions were stopped by the addition of 4 volumes of cold methanol with IS (100 nM alprazolam, 200 nM imipramine, 200 nM labetalol and 2 μM ketoprofen). Samples were centrifuged at 3,220 g for 40 minutes. Aliquot of 90 μL of the supernatant was mixed with 90 μL of ultra-pure H2O and then was used for LC-MS/MS analysis.
(§5) All calculations were carried out using Microsoft Excel. Peak area ratios of test compound to internal standard (listed in the below table) were determined from extracted ion chromatograms.
(§6) All calculations were carried out using Microsoft Excel. Peak areas were determined from extracted ion chromatograms. The slope value, k, was determined by linear regression of the natural logarithm of the remaining percentage of the parent drug vs. incubation time curve.
(§7) The in vitro half-life (in vitro t½) was determined from the slope value:
(§8) Conversion of the in vitro t½ (min) into the in vitro intrinsic clearance (in vitro CLint, in μL/min/mg proteins) was done using the following equation (mean of duplicate determinations):

in vitro [3] = conditions: rat, microsomes
Method: as §1, §2, §3, §4, §5, §6, §7, §8

in vitro [4] = conditions: mouse, microsomes
Method: as §1, §2, §3, §4, §5, §6, §7, §8

[5] = [3H]-ketanserin, 27° C., 90 min, read-out: h5-HT2A, IC50
[6] = Remaining Percentage after 60 min, human liver microsomes, with cofactors

Sequence of human 5-HT2A receptor (P28223 whole entry): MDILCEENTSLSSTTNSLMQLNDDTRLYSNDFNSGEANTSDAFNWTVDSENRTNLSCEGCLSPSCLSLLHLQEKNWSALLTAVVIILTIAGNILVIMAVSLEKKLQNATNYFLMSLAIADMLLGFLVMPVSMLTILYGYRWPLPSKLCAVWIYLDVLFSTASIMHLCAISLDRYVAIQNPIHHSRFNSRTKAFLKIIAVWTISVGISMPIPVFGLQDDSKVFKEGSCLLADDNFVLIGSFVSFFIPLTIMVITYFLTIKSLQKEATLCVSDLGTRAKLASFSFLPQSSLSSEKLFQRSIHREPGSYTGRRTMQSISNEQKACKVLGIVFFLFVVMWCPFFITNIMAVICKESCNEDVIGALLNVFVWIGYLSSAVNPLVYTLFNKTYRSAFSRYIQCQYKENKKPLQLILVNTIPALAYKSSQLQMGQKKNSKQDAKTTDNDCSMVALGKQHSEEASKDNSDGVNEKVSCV

| Structure (SMILES) | IC50 (human 5-HT2A receptor; [5]) | RFU@10 μM [1] | half-life at 2 µM (in vitro [2]) | microsomal CLint at 2 µM (in vitro [2]) | remaining at 1 h, 2 µM (in vitro [2]; [6]) | remaining at 1 h, 2 µM (in vitro [2]; Remaining Percentage after 60 min, human liver microsomes, without cofactors) | half-life at 2 µM (in vitro [3]) | microsomal CLint at 2 µM (in vitro [3]) | remaining at 1 h, 2 µM (in vitro [3]) | half-life at 2 µM (in vitro [4]) | microsomal CLint at 2 µM (in vitro [4]) | remaining at 1 h, 2 µM (in vitro [4]) | IC50 (human 5-HT2A receptor) | remaining at 1 h, 2 µM (in vitro [2]) |
| --- | --- | --- | --- | --- | --- | --- | --- | --- | --- | --- | --- | --- | --- | --- |
| CC(C)N(CCc1c[nH]c2cccc(O)c12)C(C)C [Compound 7] | 6.41 µM | 74 RFU | – | – | – | – | – | – | – | – | – | – | – | – |
| CN(C)CCc1c[nH]c2cccc(OC(=O)CCCC(=O)Oc3cccc4[nH]cc(CCN(C)C)c34)c12 [Compound I-24, Bis(3-(2-(dimethylamino)ethyl)-1H-indol-4-yl) glutarate] | 0.127 µM | 169 RFU | 4.94 min | 281 µL/min/mg | 0% | 1.08% | < 4.51 min | > 307 µL/min/mg | 0% | < 4.51 min | > 307 µL/min/mg | 0% | – | – |
| CC(C)N(CCc1c[nH]c2cccc(OC(=O)CCCC(=O)Oc3cccc4[nH]cc(CCN(C(C)C)C(C)C)c34)c12)C(C)C [Compound I-37, Bis(3-(2-(diisopropylamino)ethyl)-1H-indol-4-yl) glutarate dihydrochloride] | – | 62 RFU | < 4.51 min | > 307 µL/min/mg | – | – | < 4.51 min | > 307 µL/min/mg | 0% | < 4.51 min | > 307 µL/min/mg | 0% | 0.547 µM | 0% |
| CN(C)CCc1c[nH]c2cccc(O)c12 [Psilocin, 4-hydroxy-N,N-dimethyltryptamine, reference compound] | – | 140 RFU | – | – | 70.2% | – | – | – | 62.7% | – | – | 96.9% | – | – |
| CN(C)CCc1c[nH]c2cccc(OP(=O)(O)O)c12 [Psilocybin] | – | 143 RFU | – | – | – | – | – | – | – | – | – | – | – | – |

Source: patent publication US20260327250A1, “3-ETHYLAMINO-INDOLE DIMERS AS SEROTONERGIC AGENTS USEFUL FOR THE TREATMENT OF DISORDERS RELATED THERETO” (MINDSET PHARMA INC., priority 2022, published 2026)
